The values below come from US4183931A, “2-Ketoalkyl-4(3H)-quinazolinones” (Research Corporation, priority 1977, dated 1980).

The structures appear in SMILES notation.

In general, LD50 refers to the dose expected to kill half of the subjects tested.

A short description of data set [1]: NPP maximal electroshock seizure (MES) protection. Type of data set: in vivo, white male mice of the Carworth Farm Strain CF-1. As to conditions: Mus musculus, ip, 0.5 h; at 100 mg/kg i.p., four mice, 30 min after dosing. The method, then:
(§1) The procedures for the determination of a neuropharmacological profile involved white male mice of the Carworth Farm Strain CF-1 weighing 18 to 22 grams. […] Intraperitoneal injections were administered in logarithmic progression and sequentially. The dose levels employed routinely were 10, 30, 100 and 300 mg/kg, using four male mice at each dose level. Since this test was conducted in a sequential manner, the first does administered was at 300 mg/kg. […] Approximately thirty-eight signs and symptoms of pharmacological activity can be identified.
(§2) Since this is a general CNS screening procedure, only peak effects were recorded. Certain measures of behavior and neurological deficit were scored in terms of intensity of effect, while most others were determined on an all or none basis. Thus, in scoring measures which were normally present, e.g., spontaneous activity and skin color, an increase in score from 4 to 8 was used to denote stimulation or enhancement of skin color, whereas a decrease in score from 4 to 0 indicated depression or cyanosis. For scoring measures normally absent, e.g., depression, righting reflex and ataxia, activity was reflected as an increase in score from 0 to 8. The 0 to 8 scale was rounded off so that the actual ratings are only 0, 2, 4, 6 and 8. The compounds were also evaluated for anticonvulsant activity by using the maximal electroshock seizure (MES) test. In the MES study, four mice were dosed intraperitoneally at 100 mg/kg and challenged thirty minutes later with 50 mA, 0.2 second duration of electroshock. A protection ratio (number of mice protected from tonic extension .div. number of mice tested) was then established.
(§3) Scores for behavioral symptoms, including depression, righting reflex and ataxia, are the actual numbers reported. Protection against MES is reported as a percentage. Since four animals were involved in this test, the findings are 0% for none protected, 25% for one out of four, etc. […] In order to maintain reasonable uniformity in the reporting of results, each entry corresponds to a dosage level of 100 mg/kg. Any variations from that dosage are indicated.
In general terms: In the maximal electroshock model the usual endpoint is tonic extension of the hind limbs.

Data set [2] can be described thus: NINCDS Subcutaneous Pentylenetetrazol (Metrazol) Seizure Threshold Test (scMet). Type of data set: in vivo, mice. As to conditions: Mus musculus, sc, read-out: scMet: dosage level that elicited protection. Here is the method: (§4) 1. Neurological Activity Tests. […] Compounds were evaluated for anticonvulsant activity in two seizure models, the maximal electroshock seizure (MES) test and the subcutaneous pentylenetetrazol (Metrazol) seizure threshold (scMet) test.
Subcutaneous Pentylenetetrazol (Metrazol) Seizure Threshold Test (scMet) produces threshold (clonic) seizures. Pentylenetetrazol is administered subcutaneously as a threshold 0.5% solution (in 0.9% sodium chloride) in a loose fold of skin on the back of the neck in a dose of 85 mg/kg. […] Metrazol is given 10 minutes before the beginning of the test to allow for the delay in onset of Metrazol action. The animal is observed for 30 minutes. Failure to observe even a threshold seizure (a single episode of clonic spasms at least 5 seconds in duration) is defined as protection and indicates anticonvulsant activity in the test compound. These two methods of seizure provocation reliably elicit well-characterizied seizure phenomena.
(§5) The ability of a compound to prevent maximal electroshock seizures is believed to correlate with its ability to prevent the spread of seizure discharge through neural tissue. Activity against maximal electroshock seizures is thought to indicate potential efficacy in the treatment of major motor (grand mal) seizures. […] Selective action in the test is believed to indicate potential efficacy against absence (petit mal) seizures.
(§6) As described earlier, the MES, scMet and Rotorod tests were performed one-half hour and four hours after administration of each compound.
(§7) In the Secondary Evaluation, median effective doses (ED50) are determined in the MES, scMet and Rotorod assays using the procedures defined in Pharmacology, 95, 99-113 (1949).
(§8) Separate groups of animals are used for each time period. The times of peak toxic and anticonvulsant effect are taken from the resulting graph of percent of animals responding vs. time, and the determinations of median effective doses are performed at those times.

Data set [3] in a line: Neuropharmacological Profile (NPP): general CNS observational screen (depression, righting reflex, ataxia). To be noted: for CNS Depression / Ataxia: i.p., mice, score 0-8. The method, then: Representative compounds according to the present invention were tested for central nervous system activity by Pharmakon Laboratories of Scranton, Pennsylvania. The battery of general observational procedures used is referred to herein as a Neuropharmacological Profile (NPP). Additionally, representative compounds were tested in the Anticonvulsant Screening Project of the National Institutes of Neurological and Communicative Disorders and Stroke (NINCDS) at the University of Utah under the direction of Dr. Ewart A. Swinyard.
as §1
(§9) The animals were observed continously for one hour and, if no signs of pharmacological or toxicological activity were present at the end of the first hour, they were intermittently checked for activity every fifteen minutes thereafter for two consecutive hours. […] The observation period began immediately following the injection and the animals were then continuously observed for three hours and intermittently checked thereafter for forty-eight hours. The animals were observed and signs and symptoms of pharmacological activity were recorded continuously until no further symptoms developed and until the symptoms that appeared were no longer present. […] In such instances, the animals were observed beyond this period until they returned to normal. Routinely, the number of animals alive at the end of the forty-eight hour observation period was recorded and the LD50 estimated.
The animals are free to move about for evaluation of spatial orientation, alertness and spontaneous motor activity.
as §2
At the termination of the test, the results were recorded and tabulated.
as §3

Data set [4] can be described thus: NPP lethality (estimated LD50). To be noted: mouse, in vivo, ip. The method, then: as §1, §9, §3
A short description of data set [5]: NINCDS rotorod ataxia test (minimal neurotoxicity). Type of data set: in vivo, mice. Here is the method:
1. Neurological Activity Tests. The biological testing program is designed to evaluate the following four aspects of drug action: (1) the existence and specificity of anticonvulsant activity; (2) the toxicity, particularly to the central nervous system; and, if the results of (1) and (2) are favorable, (3) the potency and protective index, a comparison between toxic and effective dose and (4) the time course of activity. Compounds were evaluated for anticonvulsant activity in two seizure models, the maximal electroshock seizure (MES) test and the subcutaneous pentylenetetrazol (Metrazol) seizure threshold (scMet) test.
Central nervous system toxicity was evaluated in the rotorod ataxia test. This test is designed to detect minimal neurotoxicity. The animal is placed on a 1-inch diameter knurled plastic rod rotating at 6 rpm. Normal mice can remain indefinitely on a rod rotating at this speed. Neurological deficit is defined as the failure of the animal to remain on the rod for at least 1 minute. This test has a clear end-point, is quantifiable and correlates well with the clinical assessment of minimal toxicity.
Specific anticonvulsant evaluations performed by NINCDS using MES, scMet and Rotorod assays are presented in Tables III & IV for fourteen new compounds as well as several known compounds. Table III centers attention on 2-substituted-3-o-tolyl-4-(3H)-quinazolinones while Table IV includes the findings for various other 2,3-disubstituted-4(3H)-quinazolinones. As described earlier, the MES, scMet and Rotorod tests were performed one-half hour and four hours after administration of each compound. The tables identify the dosage level that elicited a positive result, such as protection against MES and scMet induced seizures, or loss of balance on the rotorod.
In the Secondary Evaluation, median effective doses (ED50) are determined in the MES, scMet and Rotorod assays using the procedures defined in Pharmacology, 95, 99-113 (1949). In addition, each compound's anticonvulsant activity and neurotoxicity over time are determined by measuring the effect of an intraperitoneally administered estimated median effective dose on maximal electroshock seizures and rotorod performance at intervals of 1/2, 1, 2, 3, 4, 6 and 8 hours.
as §8
Background: Falling from the rotarod earlier than controls is read as motor impairment.

Data set [6] is described as follows: NINCDS Maximal Electroshock Seizure Test (MES). Type of data set: in vivo, mice. To be noted: Mus musculus, ip, read-out: MES: dosage level that elicited protection. The method, then: as §4
The Maximal Electroshock Seizure Test was performed according to the method described by Swinyard and coworkers,* wherein a drop of 0.9% saline is instilled in each eye prior to application of corneal electrodes. Seizures are elicited with a 50 Hz alternating current of 50 mA (5 to 7 times that necessary to elicit minimal electroshock seizures) delivered for 0.2 sec via corneal electrodes. This stimulus will produce a maximal seizure in all normal mice. The maximal seizure typically consists of a short period of initial tonic flexion and a prolonged period of hind limb tonic extension, followed by terminal clonus. The seizure lasts about 22 seconds. Abolition of the hind limb tonic extensor component of the seizure is defined as protection and indicates anticonvulsant activity in the test compound.
as §5, §6, §7, §8

Setting [7] is: after 4 hr (value in parentheses).
Where [8] appears, read: at 30 mg/kg (value in parentheses).

In the case of `Cc1ccccc1-n1c(CC(=O)c2cccnc2)nc2ccccc2c1=O` [IIIc, 2-[2-Oxo-2-(3-pyridyl)ethyl]-3-o-tolyl-4(3H)-quinazolinone], the responders at 100 mg/kg in data set [1] was determined as 100%. Besides, the minimal effective dose in data set [2] (setting [7]) was determined as 300 mg/kg. Further, the “CNS Depression” value in data set [3] (setting [8]) amounted to 4. Besides, in data set [3] (at 100 mg/kg), the Ataxia is reported as 8 and the “CNS Depression” value amounted to 6. The median lethal dose (LD50) at 48 h in data set [4] is 562 mg/kg.
With `Cc1ccccc1-n1c(CC(O)c2ccccc2)nc2ccccc2c1=O` (stereo not drawn) [CHOHC6 H5, 2-(2-Hydroxy-2-phenylethyl)-3-o-tolyl-4(3H)-quinazolinone], the minimal effective dose in data set [2] (after 0.5 hr) was 300 mg/kg. In data set [5] (setting [7]), the “Rotorod: dosage level that elicited loss of balance” value stood at 300 mg/kg.
On to `O=C(Cc1nc2ccccc2c(=O)n1-c1ccccc1)c1cccnc1` [IVg, 2-[2-Oxo-2-(3-pyridyl)ethyl]-3-phenyl-4(3H)-quinazolinone], for which the responders at 100 mg/kg in data set [1] came to 0%. For the same molecule, the minimal effective dose in data set [2] (after 0.5 hr) and in data set [6] (after 0.5 hr) was 100 mg/kg each time. Also, in data set [3] (at 100 mg/kg), the “CNS Depression” value was 2. Moreover, the median lethal dose (LD50) at 48 h in data set [4] is 562 mg/kg.
On to `Cc1ccccc1-n1c(CC(=O)c2ccc(NC(=O)C(F)(F)F)cc2)nc2ccccc2c1=O` [IIIl, 2-[2-Oxo-2-(p-trifluoroacetamidophenyl)ethyl]-3-o-tolyl-4(3H)-quinazolinone], for which the minimal effective dose in data set [2] (after 0.5 hr) came to 300 mg/kg. Moreover, the “Rotorod: dosage level that elicited loss of balance” value in data set [5] (after 0.5 hr) is reported as 300 mg/kg.
As to `Cc1ccccc1-n1c(CC(=O)C=Cc2ccccc2)nc2ccccc2c1=O` [IIIf, 2-(2-Oxo-4-phenylbut-3-enyl)-3-o-tolyl-4(3H)-quinazolinone], the responders at 100 mg/kg in data set [1] stood at 25%. The “CNS Depression” value is on record as 2 in data set [3] (setting [8]) and 4 in data set [3] (at 100 mg/kg). The LD50 at 48 h in data set [4] was > 562 mg/kg.
In data set [1], `Cc1ccc(-n2c(C)nc3ccccc3c2=O)cc1` [p-tolyl H, 2-methyl-3-p-tolyl-4(3H)-quinazolinone, reference compound] had a responders at 100 mg/kg of 100%. Also, the “CNS Depression” value in data set [3] (setting [8]) was determined as 4. Besides, in data set [3] (at 100 mg/kg), the Ataxia was determined as 8 and the “CNS Depression” value is reported as 8. Further, the LD50 at 48 h in data set [4] is > 562 mg/kg.
For the molecule `Cc1ccc(-n2c(CC(=O)C(F)(F)F)nc3ccccc3c2=O)cc1` [IVi, 2-(3,3,3-Trifluoroacetonyl)-3-p-tolyl-4(3H)-quinazolinone], the responders at 100 mg/kg in data set [1] was 100%. In addition, in data set [3] (at 100 mg/kg), the Ataxia was found to be 2 and the “CNS Depression” value was found to be 4. Besides, in data set [4], the LD50 at 48 h is 562 mg/kg.
Consider `CCc1nc2ccccc2c(=O)n1-c1ccccc1C` [CH3, 2-Ethyl-3-o-tolyl-4(3H)-quinazolinone, reference compound], for which the minimal effective dose is 100 mg/kg in data set [2] (after 0.5 hr), 300 mg/kg in data set [2] (setting [7]), 100 mg/kg in data set [6] (after 0.5 hr) and 300 mg/kg in data set [6] (setting [7]). The “Rotorod: dosage level that elicited loss of balance” value is recorded as 100 mg/kg in data set [5] (after 0.5 hr) and 300 mg/kg in data set [5] (setting [7]).
Consider `CCOC(=O)C(=O)Cc1nc2ccccc2c(=O)n1-c1ccccc1C` [IIIm, 2-Ethoxallylmethyl-3-o-tolyl-4(3H)-quinazolinone], for which the responders at 100 mg/kg in data set [1] worked out at 0%. Also, in data set [3] (at 100 mg/kg), the “CNS Depression” value is reported as 4. The LD50 at 48 h in data set [4] is > 562 mg/kg.
In data set [1], `CC(=O)Cc1nc2ccccc2c(=O)n1-c1ccccc1C` [IIIn, 2-Acetonyl-3-o-tolyl-4(3H)-quinazolinone] yielded a responders at 100 mg/kg of 0%. Moreover, the minimal effective dose in data set [2] (setting [7]) amounted to 300 mg/kg. Also, the “behavioral activity compared with methaqualone” value in data set [3] (NPP summary) was “equal to methaqualone in affecting behavioral activity”. Besides, the muscle relaxant properties entry in data set [3] (NPP summary) was “possible muscle relaxant properties not exhibited by methaqualone itself”. For the same molecule, the entries for the “CNS Depression” value in data set [3] (setting [8]) and in data set [3] (at 100 mg/kg) were 4 and 8, respectively. In data set [4], the 50% lethal dose (LD50) at 48 h is > 562 mg/kg.
For the molecule `Cc1ccccc1-n1c(CC(=O)c2ccccn2)nc2ccccc2c1=O` [IIIb, 2-[2-Oxo-2-(2-pyridyl)ethyl]-3-o-tolyl-4-(3H)-quinazolinone], the responders at 100 mg/kg in data set [1] was found to be 0%. For the same molecule, the minimal effective dose in data set [2] (after 0.5 hr) was 300 mg/kg. In addition, the “CNS Depression” value in data set [3] (at 100 mg/kg) was 2. Moreover, the LD50 at 48 h in data set [4] is > 562 mg/kg.
`O=C(Cc1nc2ccccc2c(=O)n1-c1ccccc1)C(F)(F)F` [IVe, 2-(3,3,3-Trifluoroacetonyl)-3-phenyl-4(3H)-quinazolinone]: the responders at 100 mg/kg in data set [1] is 0%. In addition, the “CNS Depression” value in data set [3] (at 100 mg/kg) came out at 2. The LD50 at 48 h in data set [4] is 562 mg/kg.
